Results published in the NIST ThermoML archive (doi:10.1021/acs.jced.9b00607).

Tests used:
[1] = 102 kPa, Liquid; for viscosity: Falling or rolling sphere viscometry; for mass density: Vibrating tube method
[2] = wn = mass fraction of the nth substance listed; details: 102 kPa, Liquid, w2 = 0; for viscosity: Falling or rolling sphere viscometry; for mass density: Vibrating tube method

OCCO [1,2-ethanediol]
[1]
Details | mass density [kg/m3] | viscosity [mPa·s]
283.15 K | 1120 | 34.07
298.15 K | – | 17.27
313.15 K | 1099.1 | 9.69
323.15 K | 1091.6 | 6.81
333.15 K | 1085 | 5.28
343.15 K | 1077.6 | 4.06
353.15 K | 1070.1 | 3.21

OCCO [1,2-ethanediol] + CN(CCO)CCO
[2]
Details | mass density [kg/m3] | viscosity [mPa·s]
283.15 K | 1120 | 34.07
298.15 K | – | 17.27
313.15 K | 1099.1 | 9.69
323.15 K | 1091.6 | 6.81
333.15 K | 1085 | 5.28
343.15 K | 1077.6 | 4.06
353.15 K | 1070.1 | 3.21

CN(CCO)CCO [N-methyldiethanolamine]
[1]
Details | mass density [kg/m3] | viscosity [mPa·s]
283.15 K | 1048 | 198.15
298.15 K | 1036.8 | 74.87
313.15 K | 1025.3 | 35.05
323.15 K | 1017.7 | 21.96
333.15 K | 1010 | 14.83
343.15 K | 1002.2 | 10.29
353.15 K | 994.5 | 7.4

O [water]
[1]
Details | mass density [kg/m3] | viscosity [mPa·s]
283.15 K | 999.9 | 1.32
298.15 K | 997.2 | 0.91
313.15 K | 992.3 | 0.67
323.15 K | 988.3 | 0.57
333.15 K | 983.5 | –
343.15 K | 978.1 | –
353.15 K | 972.3 | –
